Laboratory results as given in US20220290200A1, “GENETICALLY MODIFIED HOST CELLS PRODUCING GLYCOSYLATED CANNABINOIDS” (OCTARINE BIO IVS, priority 2019, published 2022).

Tests used:
[1] = Hepatic microsomal stability; conditions: for t1/2 / CLint: human liver microsomes 0.5 mg/mL, 1 μM compound, NADPH and UDP-glucuronic acid
Protocol: Hepatic microsomal stability of cannabinoid glycosides were determined by incubating 2 μM of molecule with HepaRG™ human liver microsomes (Sigma) supplemented with NADPH at 37° C. Samples were taken at 0, 5, 15, 30, 45, and 60 minute intervals and analyzed as described above. Verapamil (rapid clearance) and Diazepam (low clearance) were used as references.
Alternatively, hepatic microsomal stability of cannabinoid glycosides was determined as follows. HepaRG™ pooled human liver microsomes (Sigma) (final protein concentration=0.5 mg/mL) were mixed with alamethicin (25 μg/mg), 0.1 M phosphate buffer (pH=7.4) and the test compound (1 μM final in DMSO) and incubated at 37° C. prior to addition of NADPH (final concentration 1 mM) and UDP-glucuronic acid (final concentration 1 mM) to initiate the reaction. The compound was incubated for 0, 5, 15, 30, and 45 minutes and the reaction terminated by adding acetonitrile in a 1:3 ratio (v/v). Reactions were centrifuged at 3000 rpm for 20 min at 4° C. to precipitate the protein. Following protein precipitation, internal standards were added to the sample supernatants and analyzed by LC-MS to measure the concentration of compound remaining at each time point, quantification was achieved by comparison to authentic analytical standards.
In vitro hepatic microsomal stability was performed for CBD, CBD-1′-O-β-D-glucoside (OB1), and CBD-1′-O-β-D-glucosyl-3′-O-β-D-glucoside (OB6) as described above and the intrinsic clearance (CLint) and half-life (t1/2) of each compound was determined.

[2] = Chemical stability under acidic, alkaline, oxidative and heat stress (HPLC); conditions: for % of substrate remaining in solution: HPLC, relative to control at 30° C. pH 7.0; for percent remaining after 24 h exposure relative to a control at ambient conditions: alkaline conditions (NaOH, final pH 12.5); for release of CBD aglycone (stability of the glucoside bond): any condition (acidic, alkaline, oxidative, heat)
Protocol: Alternatively, chemical stability of cannabinoid glycosides was determined under alkaline, acidic, oxidative and heat stress as follows. 25 mM stock solutions of cannabinoids and cannabinoid glycosides were prepared in 100% methanol. 15 μL is mixed with 5 μL of 400 mM HCl solution (final pH=1.1), 400 mM NaOH solution (Final pH=12.5), 12% H2O2 solution (final concentration 3%), or H2O pH 7.0. […] A control under ambient conditions was also prepared where 15 μL of the cannabinoid or cannabinoid glycoside was added to 5 μL H2O pH 7.0 and incubated at 30° C. After 24 h samples were placed on ice and 60 μL of ice-cold 100% methanol is added to each sample. Samples were centrifuged and transferred to HPLC vials for analysis. The remaining concentration of cannabinoid or cannabinoid glycoside was quantified by comparing to authentic analytical standards. Determining the presence of degradation products were determined by comparing with authentic analytical standards.
CBD, CBD-1′-O-β-D-glucoside (OB1), and CBD-1′-O-β-D-glucosyl-3′-O-β-D-glucoside (OB6) were exposed to oxidative, alkaline, acidic and heat conditions as described above, and their degradation quantified by HPLC analysis by measuring the amount of compound remaining in solution after 24 h exposure to a given condition and expressed as percent (%) remaining after 24 h exposure relative to a control at ambient conditions. Also measured was the accumulation of the known CBD degradation product THC, expressed as percent accumulated after 24 h exposure.

Caco-2 cells = experiment: Caco-2 bi-directional permeability assay; format: in vitro ADME, human; conditions: for efflux ratio compared to CBD / permeability coefficient (Papp) A to B and B to A compared to unmodified CBD: Caco-2, 10 μM; for efflux ratio compared to CBD / permeability coefficient (Papp) A to B and B to A compared to unmodified CBD / Mean recovery (%), Direction A→B / Mean Papp, Direction A→B / Mean recovery (%), Direction B→A / Mean Papp, Direction B→A: 120 min; for % recovery compared to CBD: Caco-2, both compartments; for Mean recovery (%), Direction A→B / Mean Papp, Direction A→B: apical to basolateral; for Mean Papp, Direction A→B / Mean Papp, Direction B→A: mean and standard deviation of duplicates; for Mean recovery (%), Direction B→A / Mean Papp, Direction B→A: basolateral to apical; for Efflux ratio: ratio of B−A and A−B permeabilities
Protocol: Intestinal permeability of cannabinoids and glycosylated cannabinoids was determined by measuring bi-directional transport across Caco-2 cell membranes. Caco-2 cells are used as an in vitro model of the human intestinal epithelium and permit assessment of the intestinal permeability of potential drugs. The test compound is added to either the apical or basolateral side of a confluent monolayer of Caco-2 cells and permeability is measured by monitoring the appearance of the test compound on the opposite side of the monolayer using LC-MS/QTOF. When performing a bi-directional assay, the efflux ratio (ER) is calculated from the ratio of B−A and A−B permeabilities. Caco-2 cells obtained from the ATCC are used between passage numbers 40-60. Cells are seeded onto Millipore Multiscreen Transwell plates at 1×10^5 cells/cm2. The cells are cultured in DMEM and media is changed every two or three days. On day 20 the permeability study is performed. Cell culture and assay incubations are carried out at 37° C. in an atmosphere of 5% CO2 with a relative humidity of 95%. On the day of the assay, the monolayers are prepared by rinsing both apical and basolateral surfaces twice with Hanks Balanced Salt Solution (HBSS) at the desired pH warmed to 37° C. Cells are then incubated with HBSS at the desired pH in both apical and basolateral compartments for 40 min to stabilize physiological parameters. 10 mM solutions of cannabinoids and cannabinoid glycosides are prepared in DMSO then diluted with assay buffer to give a final test compound concentration of 10 μM (final DMSO concentration of 1% v/v). The fluorescent integrity marker lucifer yellow is also included in the solution.
Analytical standards are prepared from test compound DMSO dilutions and transferred to buffer, maintaining a 1% v/v DMSO concentration. For assessment of A−B permeability, HBSS is removed from the apical compartment and replaced with test compound solution. The apical compartment insert is then placed into a companion plate containing fresh buffer (containing 1% v/v DMSO). For assessment of B−A permeability, HBSS is removed from the companion plate and replaced with test compound solution. Fresh buffer (containing 1% v/v DMSO) is added to the apical compartment insert, which is then placed into the companion plate. At 120 min the apical compartment inserts and the companion plates are separated and apical and basolateral samples diluted for analysis. Test compound permeability is assessed in duplicate. Compounds of known permeability characteristics are run as controls on each assay plate. Test and control compounds are quantified by LC-MS/QTOF as described above. The starting concentration (C0) is determined from the solution and the experimental recovery calculated from C0 and both apical and basolateral compartment concentrations. The integrity of the monolayer throughout the experiment is checked by monitoring lucifer yellow permeation using fluorometric analysis. The permeability coefficient (Papp) for each compound is calculated from the following equation: Papp=(dQ/dt)/(C0×A) Where dQ/dt is the rate of permeation of the drug across the cells, C0 is the donor compartment concentration at time zero and A is the area of the cell monolayer. C0 is obtained from analysis of the dosing solution. The efflux ratio (ER) is calculated from mean Papp values from A−B and B−A data. This is derived from: ER=Papp(B−A)/Papp(A−B). The % recovery is calculated from the following equation; % recovery=(Total compound in donor and receiver compartment at end of experiment)/(initial compound present)×100.
CBD glycosides were produced using glycosyl transferases and purified as described above. […] Low recovery of compound in a Caco-2 permeability assay can indicate problems with poor solubility, binding of the compound to the plate, metabolism by the Caco-2 cells or accumulation of the compound in the cell monolayer.

| SMILES | t1/2 [1] [min] | % of substrate remaining in solution ([2]; Acidic (pH 1.1), 24 h) [%] | % of substrate remaining in solution ([2]; Alkaline (pH 12.5), 24 h) [%] | % of substrate remaining in solution ([2]; Heat (60° c.), 24 h) [%] | % of substrate remaining in solution ([2]; Oxidative (H2O2 3%), 24 h) [%] | percent remaining after 24 h exposure relative to a control at ambient conditions ([2]; 30° C.) [%] | CLint [1] [μL/min/mg protein] | efflux ratio compared to CBD (Caco-2 cells) | permeability coefficient (Papp) A to B and B to A compared to unmodified CBD (Caco-2 cells) | % recovery compared to CBD (Caco-2 cells) | Mean recovery (%), Direction A→B (Caco-2 cells) [%] | Mean Papp, Direction A→B (Caco-2 cells) | Mean recovery (%), Direction B→A (Caco-2 cells) [%] | Mean Papp, Direction B→A (Caco-2 cells) | Efflux ratio (Caco-2 cells) | release of CBD aglycone (stability of the glucoside bond) ([2]; 24 h) | other results |
| --- | --- | --- | --- | --- | --- | --- | --- | --- | --- | --- | --- | --- | --- | --- | --- | --- | --- |
| C=C(C)[C@@H]1CCC(C)=C[C@H]1c1c(O)cc(CCCCC)cc1O [CBD, cannabidiol, reference compound] | 3.77 | 63.90 | 2.26 | 72.76 | 70.56 | 2.26 |  |  |  |  |  |  |  |  |  |  | microsomal CLint at 1 μM ([1]; human, microsomes, pH 7.4): 368 ± 0.684 µL/min/mg; accumulation of degradation product THC ([2]; acidic and alkaline conditions, 24 h): degrades to THC; stability under stress conditions ([2]; all conditions tested (acidic, alkaline, oxidative, heat), 24 h): unstable under all conditions tested |
| C=C(C)[C@@H]1CCC(C)=C[C@H]1c1c(O)cc(CCCCC)cc1O[C@@H]1O[C@H](CO)[C@@H](O)[C@H](O)[C@H]1O [OB1, CBD-1′-O-β-D-glucoside] | 1.24 | 80.02 | 100.27 | 84.35 | 92.98 | 100 | 1110 ± 0.312 | higher efflux ratio | significantly higher permeability coefficients in both directions | successively higher rates of recovery | 69.8 | 10.40 ± 0.31 10^−6 cms^−1 | 79.7 | 35.70 ± 0.34 10^−6 cms^−1 | 3.43 | no CBD aglycone was detected | % accumulation of THC-1′-O-β-D-glucoside (OB20) ([2]; Acidic (pH 1.1), 24 h): 1.61%; accumulation of degradation product THC-1′-O-β-D-glucoside (OB20) ([2]; acidic conditions (HCl, final pH 1.1), 30° C., 24 h): a small amount of THC-1′-O-β-D-glucoside (OB20) was detected |
| C=C(C)[C@@H]1CCC(C)=C[C@H]1c1c(O[C@@H]2O[C@H](CO)[C@@H](O)[C@H](O)[C@H]2O)cc(CCCCC)cc1O[C@@H]1O[C@H](CO)[C@@H](O)[C@H](O)[C@H]1O [OB6, CBD-1′-O-β-D-glucosyl-3′-O-β-D-glucoside] | 188 | 91.90 | 100.62 | 80.79 | 74.98 | 100 | 7.39 ± 1.32 | higher than both CBD and OB1 | permeability coefficients were lower | successively higher rates of recovery | 91.9 | 0.10 ± 0.05 10^−6 cms^−1 | 87.8 | 0.44 ± 0.17 10^−6 cms^−1 | 4.31 | no CBD aglycone was detected | decrease in intrinsic clearance versus CBD ([1]; human liver microsomes): 50 fold; increase in half-life versus CBD ([1]; human liver microsomes): 50 fold; accumulation of THC or THC-glucoside ([2]; any of the conditions (acidic, alkaline, oxidative, heat), 24 h): no THC or THC-glucoside was detected |
